Laboratory results published in patent US20110028441A1, “NOVEL PHENYL-SUBSTITUTED PIPERAZINO-DIHYDROTHIENOPYRIMIDINES” (BOEHRINGER INGELHEIM INTERNATIONAL GMBH, priority 2007, published 2011).

Biological target: PDE4B (Homo sapiens, UniProt Q07343)
Assay: Scintillation Proximity (SPA) Assay of PDE4B enzyme inhibition
Format: biochemical
Conditions: read-out: % Inhibition PDE4B @ 1 μM
Description: The inhibitions (in %) at 1 μM of the individual Example substances are included in the following Tables of Examples and were determined as follows:
The Scintillation Proximity (SPA) Assays (GE Healthcare, No. TRKQ7090) make use of the different affinities of cyclic 3′-5′-adenosine monophosphate (cAMP, low affinity) and linear 5′-adenosine monophosphate (AMP, high affinity) for yttrium silicate scintillator beads. The cAMP specific phosphodiesterase (PDE) PDE4B cleaves the 3′-phosphoester bond of the tritium-labelled [H3]-cAMP to form the [H3]-5′-AMP. Because of its higher affinity for the scintillator beads this [H3]-AMP accumulates on the beads and causes scintillation events (flashes of light) which are measured in a Wallac Microbeta Scintillation Counter.
The test starts with one hours incubation of [H3]-cAMP with the PDE4B enzyme in assay buffer at 30° C., once with the Example substance that is to be tested (in a concentration of 1 μM) and once without the Example substance that is to be tested. After this incubation the reaction is stopped by the addition of the beads. The beads are given an opportunity to settle over the next 45 minutes, then they are measured in the Scintillation Counter. If the substance is capable of inhibiting the enzymatic activity of the PDE4B, less [H3]-AMP is formed during the incubation phase and fewer scintillation events can be measured.

Sequence of PDE4B (Q07343 whole entry, species assumed): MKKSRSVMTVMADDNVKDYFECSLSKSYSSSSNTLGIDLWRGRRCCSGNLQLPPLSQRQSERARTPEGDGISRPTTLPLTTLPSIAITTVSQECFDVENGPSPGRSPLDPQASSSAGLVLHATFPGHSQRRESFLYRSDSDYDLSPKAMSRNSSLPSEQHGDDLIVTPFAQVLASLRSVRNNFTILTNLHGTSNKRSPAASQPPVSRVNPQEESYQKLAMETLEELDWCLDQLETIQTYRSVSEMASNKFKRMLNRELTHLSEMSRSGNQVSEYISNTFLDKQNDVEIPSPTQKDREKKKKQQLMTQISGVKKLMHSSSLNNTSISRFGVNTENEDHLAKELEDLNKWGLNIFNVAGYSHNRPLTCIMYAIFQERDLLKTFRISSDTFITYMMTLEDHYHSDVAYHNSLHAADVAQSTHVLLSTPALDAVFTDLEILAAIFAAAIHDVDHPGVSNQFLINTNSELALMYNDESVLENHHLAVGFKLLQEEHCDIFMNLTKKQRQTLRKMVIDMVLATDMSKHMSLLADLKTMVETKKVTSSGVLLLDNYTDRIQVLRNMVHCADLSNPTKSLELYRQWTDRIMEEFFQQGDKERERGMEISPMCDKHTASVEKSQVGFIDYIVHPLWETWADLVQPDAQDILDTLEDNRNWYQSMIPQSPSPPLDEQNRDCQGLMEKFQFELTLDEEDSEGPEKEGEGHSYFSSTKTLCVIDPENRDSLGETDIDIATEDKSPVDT

| SMILES | inhibition at 1 µM [%] |
| --- | --- |
| Cc1cc(Cl)ccc1N1CCN(c2nc3c(c(N[C@H]4CCC(=O)N(C)C4)n2)[S+]([O-])CC3)CC1 (stereo partly drawn) [Example 90, (S)-5-{2-[4-(4-CHLORO-2-METHYLPHENYL)-PIPERAZIN-1-YL]-5-OXO-6,7-DIHYDRO-5H-5λ^4-THIENO[3,2-D]PYRIMIDIN-4-YLAMINO}-1-METHYLPIPERIDIN-2-ONE] | 97 |
| Cc1cc(C)cc(N2CCN(c3nc4c(c(Nc5cccc(F)c5)n3)[S+]([O-])CC4)CC2)c1 (stereo not drawn) [Example 100, {2-[4-(3,5-DIMETHYLPHENYL)-PIPERAZIN-1-YL]-5-OXO-6,7-DIHYDRO-5H-5λ^4-THIENO[3,2-D]PYRIMIDIN-4-YL}-(3-FLUOROPHENYL)-AMINE] | 97 |
| CN1C[C@@H](Nc2nc(N3CCN(c4cccc(F)c4)CC3)nc3c2[S+]([O-])CC3)CCC1=O (stereo partly drawn) [Example 37, (S)-5-{2-[4-(3-FLUOROPHENYL)-PIPERAZIN-1-YL]-5-OXO-6,7-DIHYDRO-5H-5λ^4-THIENO[3,2-D]PYRIMIDIN-4-YLAMINO}-1-METHYLPIPERIDIN-2-ONE] | 97 |
| CN1C[C@@H](Nc2nc(N3CCN(c4ccc(Cl)c(Cl)c4)CC3)nc3c2[S+]([O-])CC3)CCC1=O (stereo partly drawn) [Example 59, (S)-5-{2-[4-(3,4-DICHLOROPHENYL)-PIPERAZIN-1-YL]-5-OXO-6,7-DIHYDRO-5H-5λ^4-THIENO[3,2-D]PYRIMIDIN-4-YLAMINO}-1-METHYLPIPERIDIN-2-ONE] | 96 |
| CN1C[C@@H](Nc2nc(N3CCN(c4ccc(Cl)c(F)c4)CC3)nc3c2[S+]([O-])CC3)CCC1=O (stereo partly drawn) [Example 64, (S)-5-{2-[4-(4-CHLORO-3-FLUOROPHENYL)-PIPERAZIN-1-YL]-5-OXO-6,7-DIHYDRO-5H-5λ^4-THIENO[3,2-D]PYRIMIDIN-4-YLAMINO}-1-METHYLPIPERIDIN-2-ONE] | 94 |

Same assay, conditions: test substance 1 μM; one hour incubation of [H3]-cAMP with PDE4B enzyme at 30° C.; read-out: % Inhibition PDE4B @ 1 μM

| SMILES | inhibition at 1 µM [%] |
| --- | --- |
| CN1C[C@@H](Nc2nc(N3CCN(c4ccccc4Cl)CC3)nc3c2[S+]([O-])CC3)CCC1=O (stereo partly drawn) [Example 14, (S)-5-{2-[4-(2-chlorophenyl)-piperazin-1-yl]-5-oxo-6,7-dihydro-5H-5λ^4-thieno[3,2-d]pyrimidin-4-ylamino}-1-methylpiperidin-2-one] | 96 |
| [O-][S+]1CCc2nc(N3CCN(c4cccc(F)c4)CC3)nc(NC3CCOCC3)c21 (stereo not drawn) [Example 42, {2-[4-(3-FLUOROPHENYL)-PIPERAZIN-1-YL]-5-OXO-6,7-DIHYDRO-5H-5λ^4-THIENO[3,2-D]PYRIMIDIN-4-YL}-(TETRAHYDROPYRAN-4-YL)-AMINE] | 96 |
| [O-][S+]1CCc2nc(N3CCN(c4ccccc4Cl)CC3)nc(Nc3cccc(F)c3)c21 (stereo not drawn) [Example 24, {2-[4-(2-CHLOROPHENYL)-PIPERAZIN-1-YL]-5-OXO-6,7-DIHYDRO-5H-5λ^4-THIENO[3,2-D]PYRIMIDIN-4-YL}-(3-FLUOROPHENYL)-AMINE] | 95 |
| CC(C)[C@H](CO)Nc1nc(N2CCN(c3ccccc3C#N)CC2)nc2c1[S+]([O-])CC2 (stereo partly drawn) [Example 2, 2-{4-[4-((R)-1-hydroxymethyl-2-methylpropylamino)-5-oxo-6,7-dihydro-5H-5λ^4-thieno[3,2-d]pyrimidin-2-yl]piperazin-1-yl}-benzonitrile] | 92 |
| [O-][S+]1CCc2nc(N3CCN(c4cccc(F)c4)CC3)nc(NC3(CO)CC3)c21 (stereo not drawn) [Example 32, (1-{2-[4-(3-FLUOROPHENYL)-PIPERAZIN-1-YL]-5-OXO-6,7-DIHYDRO-5H-5λ^4-THIENO[3,2-D]PYRIMIDIN-4-YLAMINO}-CYCLOPROPYL)-METHANOL] | 97 |
| COc1ccccc1N1CCN(c2nc3c(c(Nc4cccc(F)c4)n2)[S+]([O-])CC3)CC1 (stereo not drawn) [Example 21, (3-FLUOROPHENYL)-{2-[4-(2-METHOXYPHENYL)-PIPERAZIN-1-YL]-5-OXO-6,7-DIHYDRO-5H-5λ^4-THIENO[3,2-D]PYRIMIDIN-4-YL}-AMINE] | 96 |
| CC(C)[C@H](CO)Nc1nc(N2CCN(c3ccccc3Cl)CC2)nc2c1[S+]([O-])CC2 (stereo partly drawn) [Example 4, (R)-2-{2-[4-(2-CHLOROPHENYL)-PIPERAZIN-1-YL]-5-OXO-6,7-DIHYDRO-5H-5λ^4-THIENO[3,2-D]PYRIMIDIN-4-YLAMINO}-3-METHYLBUTAN-1-OL] | 88 |

The remaining lines, values ahead:

| inhibition at 1 µM [%] | SMILES |
| --- | --- |
| 96 | [O-][S+]1CCc2nc(N3CCN(c4ccc(Cl)c(Cl)c4)CC3)nc(NC3(CO)CC3)c21 (stereo not drawn) [Example 57, (1-{2-[4-(3,4-DICHLOROPHENYL)-PIPERAZIN-1-YL]-5-OXO-6,7-DIHYDRO-5H-5λ^4-THIENO[3,2-D]PYRIMIDIN-4-YLAMINO}-CYCLOPROPYL)-METHANOL] |
| 96 | Cc1cc(Cl)ccc1N1CCN(c2nc3c(c(NC4CCOCC4)n2)[S+]([O-])CC3)CC1 (stereo not drawn) [Example 98, {2-[4-(4-CHLORO-2-METHYLPHENYL)-PIPERAZIN-1-YL]-5-OXO-6,7-DIHYDRO-5H-5λ^4-THIENO[3,2-D]PYRIMIDIN-4-YL}-(TETRAHYDROPYRAN-4-YL)-AMINE] |
| 96 | [O-][S+]1CCc2nc(N3CCN(c4ccc(Cl)c(Cl)c4)CC3)nc(NC3CCOCC3)c21 (stereo not drawn) [Example 58, {2-[4-(3,4-DICHLOROPHENYL)-PIPERAZIN-1-YL]-5-OXO-6,7-DIHYDRO-5H-5λ^4-THIENO[3,2-D]PYRIMIDIN-4-YL}-(TETRAHYDROPYRAN-4-YL)-AMINE] |
| 89 | CC(C)C(CO)Nc1nc(N2CCN(c3ccc(Cl)c(C#N)c3)CC2)nc2c1[S+]([O-])CC2 [Example 53, 2-chloro-5-{4-[4-((R)-1-hydroxymethyl-2-methyl-propylamino)-5-oxo-6,7-dihydro-5H-5λ^4-thieno[3,2-d]pyrimidin-2-yl]-piperazin-1-yl}-benzonitrile] |
| 96 | [O-][S+]1CCc2nc(N3CCN(c4cc(Cl)cc(Cl)c4)CC3)nc(Nc3cccc(F)c3)c21 (stereo not drawn) [Example 99, {2-[4-(3,5-DICHLOROPHENYL)-PIPERAZIN-1-YL]-5-OXO-6,7-DIHYDRO-5H-5λ^4-THIENO[3,2-D]PYRIMIDIN-4-YL}-(3-FLUOROPHENYL)-AMINE] |
| 92 | CC(C)[C@H](CO)Nc1nc(N2CCN(c3ccc(Cl)cc3F)CC2)nc2c1[S+]([O-])CC2 (stereo partly drawn) [Example 111, (R)-2-{2-[4-(4-CHLORO-2-FLUOROPHENYL)-PIPERAZIN-1-YL]-5-OXO-6,7-DIHYDRO-5H-5λ^4-THIENO[3,2-D]PYRIMIDIN-4-YLAMINO}-3-METHYLBUTAN-1-OL] |
| 94 | [O-][S+]1CCc2nc(N3CCN(c4ccc(Cl)cc4F)CC3)nc(NC3(CO)CC3)c21 (stereo not drawn) [Example 105, (1-{2-[4-(4-CHLORO-2-FLUOROPHENYL)-PIPERAZIN-1-YL]-5-OXO-6,7-DIHYDRO-5H-5λ^4-THIENO[3,2-D]PYRIMIDIN-4-YLAMINO}-CYCLOPROPYL)-METHANOL] |
| 90 | Cc1cc(Cl)ccc1N1CCN(c2nc3c(c(N[C@@H](CO)C(C)C)n2)[S+]([O-])CC3)CC1 (stereo partly drawn) [Example 75, (R)-2-{2-[4-(4-CHLORO-2-METHYLPHENYL)-PIPERAZIN-1-YL]-5-OXO-6,7-DIHYDRO-5H-5λ^4-THIENO[3,2-D]PYRIMIDIN-4-YLAMINO}-3-METHYLBUTAN-1-OL] |
| 94 | Cc1cc(Cl)ccc1N1CCN(c2nc3c(c(Nc4cccc(F)c4)n2)[S+]([O-])CC3)CC1 (stereo not drawn) [Example 67, {2-[4-(4-CHLORO-2-METHYLPHENYL)-PIPERAZIN-1-YL]-5-OXO-6,7-DIHYDRO-5H-5λ^4-THIENO[3,2-D]PYRIMIDIN-4-YL}-(3-FLUOROPHENYL)-AMINE] |
| 95 | [O-][S+]1CCc2nc(N3CCN(c4ccc(Cl)c(F)c4)CC3)nc(NC3CCOCC3)c21 (stereo not drawn) [Example 62, {2-[4-(4-CHLORO-3-FLUOROPHENYL)-PIPERAZIN-1-YL]-5-OXO-6,7-DIHYDRO-5H-5λ^4-THIENO[3,2-D]PYRIMIDIN-4-YL}-(TETRAHYDROPYRAN-4-YL)-AMINE] |
| 94 | CCC[C@H](CO)Nc1nc(N2CCN(c3ccc(Cl)c(C(F)(F)F)c3)CC2)nc2c1[S+]([O-])CC2 (stereo partly drawn) [Example 56, (R)-2-{2-[4-(4-chloro-3-trifluoromethylphenyl)-piperazin-1-yl]-5-oxo-6,7-dihydro-5H-5λ^4-thieno[3,2-d]pyrimidin-4-ylamino}-pentan-1-ol] |
| 92 | [O-][S+]1CCc2nc(N3CCN(c4ccc(Cl)cc4F)CC3)nc(Nc3cccc(F)c3)c21 (stereo not drawn) [Example 109, {2-[4-(4-CHLORO-2-FLUOROPHENYL)-PIPERAZIN-1-YL]-5-OXO-6,7-DIHYDRO-5H-5λ^4-THIENO[3,2-D]PYRIMIDIN-4-YL}-(3-FLUOROPHENYL)-AMINE] |
| 96 | [O-][S+]1CCc2nc(N3CCN(c4cccc(F)c4)CC3)nc(Nc3cccc(F)c3)c21 (stereo not drawn) [Example 47, (3-FLUOROPHENYL)-{2-[4-(3-FLUOROPHENYL)-PIPERAZIN-1-YL]-5-OXO-6,7-DIHYDRO-5H-5λ^4-THIENO[3,2-D]PYRIMIDIN-4-YL}-AMINE] |
| 96 | Cc1cccc(N2CCN(c3nc4c(c(Nc5cccc(F)c5)n3)[S+]([O-])CC4)CC2)c1 (stereo not drawn) [Example 50, (3-FLUOROPHENYL)-[5-OXO-2-(4-m-TOLYLPIPERAZIN-1-YL)-6,7-DIHYDRO-5H-5λ^4-THIENO[3,2-D]PYRIMIDIN-4-YL]-AMINE] |
| 95 | [O-][S+]1CCc2nc(N3CCN(c4ccc(Cl)c(F)c4)CC3)nc(NC3(CO)CC3)c21 (stereo not drawn) [Example 61, (1-{2-[4-(4-CHLORO-3-FLUOROPHENYL)-PIPERAZIN-1-YL]-5-OXO-6,7-DIHYDRO-5H-5λ^4-THIENO[3,2-D]PYRIMIDIN-4-YLAMINO}-CYCLOPROPYL)-METHANOL] |
